Data published in ChEMBL document CHEMBL1127758 (Bioorg Med Chem Lett, 1994).

Key:
[1] = Inhibitory activity against phosphorylase kinase was determined
[2] = biological target: cAMP-dependent protein kinase (PKA) (Homo sapiens, UniProt P22694+P17612+P22612)
Description: Inhibitory activity against cAMP-dependent protein kinase A was determined

[3] = biological target: Epidermal growth factor receptor (Homo sapiens, UniProt P00533)
Description: Inhibitory activity against protein tyrosine kinase of Epidermal growth factor receptor was determined

[4] = Inhibition of Ribosomal protein S6 kinase
[5] = biological target: Proto-oncogene tyrosine-protein kinase Src (Homo sapiens, UniProt P12931); assay: Inhibition of Src tyrosine kinase
Sequence of Proto-oncogene tyrosine-protein kinase Src (P12931 2-536 limits assumed): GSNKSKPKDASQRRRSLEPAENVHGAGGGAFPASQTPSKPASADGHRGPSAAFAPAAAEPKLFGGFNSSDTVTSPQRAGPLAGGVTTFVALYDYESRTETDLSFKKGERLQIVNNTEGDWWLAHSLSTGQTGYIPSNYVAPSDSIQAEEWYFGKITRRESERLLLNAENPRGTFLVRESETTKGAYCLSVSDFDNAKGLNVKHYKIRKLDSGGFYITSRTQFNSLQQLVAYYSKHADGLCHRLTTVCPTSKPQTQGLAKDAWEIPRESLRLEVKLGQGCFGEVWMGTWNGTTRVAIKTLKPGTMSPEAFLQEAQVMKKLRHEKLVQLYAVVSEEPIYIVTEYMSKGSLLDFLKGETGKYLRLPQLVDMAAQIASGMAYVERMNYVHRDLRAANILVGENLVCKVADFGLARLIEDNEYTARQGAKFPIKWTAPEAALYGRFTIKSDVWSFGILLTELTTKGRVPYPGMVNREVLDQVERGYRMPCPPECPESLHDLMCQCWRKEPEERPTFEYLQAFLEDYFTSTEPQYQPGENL

Sequence of Epidermal growth factor receptor (P00533 whole entry): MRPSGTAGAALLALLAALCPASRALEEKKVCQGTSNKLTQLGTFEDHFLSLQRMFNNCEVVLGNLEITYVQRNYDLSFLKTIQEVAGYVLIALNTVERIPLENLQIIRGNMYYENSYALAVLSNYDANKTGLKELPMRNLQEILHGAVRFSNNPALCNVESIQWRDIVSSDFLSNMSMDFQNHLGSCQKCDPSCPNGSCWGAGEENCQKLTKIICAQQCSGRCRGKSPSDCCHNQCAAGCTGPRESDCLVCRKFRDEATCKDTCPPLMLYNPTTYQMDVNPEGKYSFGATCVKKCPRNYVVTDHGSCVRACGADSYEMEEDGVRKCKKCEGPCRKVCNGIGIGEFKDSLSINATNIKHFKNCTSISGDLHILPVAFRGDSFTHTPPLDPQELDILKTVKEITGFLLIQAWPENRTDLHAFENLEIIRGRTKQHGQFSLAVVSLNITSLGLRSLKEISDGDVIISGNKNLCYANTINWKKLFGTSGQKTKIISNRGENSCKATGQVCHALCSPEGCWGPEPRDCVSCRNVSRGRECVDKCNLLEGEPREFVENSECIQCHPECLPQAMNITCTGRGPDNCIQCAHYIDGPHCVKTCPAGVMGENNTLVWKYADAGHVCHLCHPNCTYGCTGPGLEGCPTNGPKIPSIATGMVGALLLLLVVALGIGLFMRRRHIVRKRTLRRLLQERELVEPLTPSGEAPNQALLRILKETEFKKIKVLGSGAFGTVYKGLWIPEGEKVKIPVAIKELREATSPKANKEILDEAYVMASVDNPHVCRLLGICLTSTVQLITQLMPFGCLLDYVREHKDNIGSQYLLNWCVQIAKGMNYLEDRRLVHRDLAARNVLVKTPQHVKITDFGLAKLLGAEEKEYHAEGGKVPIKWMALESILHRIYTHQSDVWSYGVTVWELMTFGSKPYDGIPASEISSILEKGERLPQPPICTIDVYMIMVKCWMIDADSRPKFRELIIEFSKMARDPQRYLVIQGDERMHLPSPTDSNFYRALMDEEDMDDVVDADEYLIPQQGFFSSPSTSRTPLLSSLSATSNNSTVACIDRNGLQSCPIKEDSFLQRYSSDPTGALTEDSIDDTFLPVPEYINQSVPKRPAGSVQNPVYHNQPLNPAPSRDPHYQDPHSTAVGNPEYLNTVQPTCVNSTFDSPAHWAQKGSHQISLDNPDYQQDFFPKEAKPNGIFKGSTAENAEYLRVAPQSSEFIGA

| SMILES | IC50 [1] | IC50 [2] | IC50 [3] | IC50 [4] | IC50 [5] |
| --- | --- | --- | --- | --- | --- |
| CO[C@H]1[C@@H](N(C)C(=O)c2ccc(Cl)cc2)C[C@@H]2O[C@@]1(C)n1c3ccccc3c3c4c(c5c6ccccc6n2c5c31)C(=O)NC4 | 320 nM | 2600 nM |  |  |  |
| CNC(=S)N(C)[C@H]1C[C@@H]2O[C@](C)([C@H]1OC)n1c3ccccc3c3c4c(c5c6ccccc6n2c5c31)C(=O)NC4 | 10 nM | 1600 nM | 12500 nM | 900 nM |  |
| CO[C@H]1[C@@H](N(C)S(C)(=O)=O)C[C@@H]2O[C@@]1(C)n1c3ccccc3c3c4c(c5c6ccccc6n2c5c31)C(=O)NC4 | 19 nM | 1000 nM |  |  |  |
| CO[C@H]1[C@@H](N(C)Cc2ccccc2)C[C@@H]2O[C@@]1(C)n1c3ccccc3c3c4c(c5c6ccccc6n2c5c31)C(=O)NC4 | 100 nM | 480 nM |  |  |  |
| COC(=O)N(C)[C@H]1C[C@@H]2O[C@](C)([C@H]1OC)n1c3ccccc3c3c4c(c5c6ccccc6n2c5c31)C(=O)NC4 | 40 nM | 480 nM |  |  |  |
| CO[C@H]1[C@@H](N(C)C(=O)c2ccccc2)C[C@@H]2O[C@@]1(C)n1c3ccccc3c3c4c(c5c6ccccc6n2c5c31)C(=O)N[C@@H]4O | 35 nM |  |  |  |  |
| COC(=O)c1ccc(C(=O)N(C)[C@H]2C[C@@H]3O[C@](C)([C@H]2OC)n2c4ccccc4c4c5c(c6c7ccccc7n3c6c42)C(=O)NC5)cc1 | 53 nM | 3670 nM |  |  |  |
| CO[C@H]1[C@@H](N(C)C(=O)c2cccnc2)C[C@@H]2O[C@@]1(C)n1c3ccccc3c3c4c(c5c6ccccc6n2c5c31)C(=O)NC4 | 12 nM | 380 nM |  |  |  |
| CO[C@H]1[C@@H](N(C)C(=O)c2cnccn2)C[C@@H]2O[C@@]1(C)n1c3ccccc3c3c4c(c5c6ccccc6n2c5c31)C(=O)NC4 | 20 nM | 750 nM | 8180 nM |  |  |
| CO[C@H]1[C@@H](N(C)C(=O)c2ccccc2)C[C@@H]2O[C@@]1(C)n1c3ccccc3c3c4c(c5c6ccccc6n2c5c31)C(=O)NC4 | 48 nM |  |  |  |  |
| CN[C@H]1C[C@@H]2O[C@](C)([C@H]1OC)n1c3ccccc3c3c4c(c5c6ccccc6n2c5c31)[C@@H](O)NC4=O | 170 nM | 3300 nM |  |  |  |
| CO[C@H]1[C@@H]([N+](C)(C)C)C[C@@H]2O[C@@]1(C)n1c3ccccc3c3c4c(c5c6ccccc6n2c5c31)C(=O)NC4 | 21 nM | 68 nM |  | 50 nM |  |
| CN[C@H]1C[C@@H]2O[C@](C)([C@H]1OC)n1c3ccccc3c3c4c(c5c6ccccc6n2c5c31)C(=O)N[C@@H]4O | 4 nM |  |  |  |  |
| CO[C@H]1[C@@H](N(C)C(=O)c2ccccc2)C[C@@H]2O[C@@]1(C)n1c3ccccc3c3c4c(c5c6ccccc6n2c5c31)C(=O)N(Cc1ccccc1)C4 | ~100000 nM | > 100000 nM |  | > 100000 nM |  |
| CO[C@H]1[C@@H](N(C)C(=O)C2CCCCC2)C[C@@H]2O[C@@]1(C)n1c3ccccc3c3c4c(c5c6ccccc6n2c5c31)C(=O)NC4 | 80 nM | 1570 nM |  |  |  |
| CN[C@H]1C[C@@H]2O[C@](C)([C@H]1OC)n1c3ccccc3c3c4c(c5c6ccccc6n2c5c31)[C@H](O)NC4=O | 22 nM | 2250 nM |  |  |  |
| CO[C@H]1[C@@H](N(C)CCC#N)C[C@@H]2O[C@@]1(C)n1c3ccccc3c3c4c(c5c6ccccc6n2c5c31)C(=O)NC4 | 24 nM | 1400 nM |  |  |  |
| CC[N+](C)(C)[C@H]1C[C@@H]2O[C@](C)([C@H]1OC)n1c3ccccc3c3c4c(c5c6ccccc6n2c5c31)C(=O)NC4 | 18 nM | 270 nM |  |  |  |
| COC(=O)CN1Cc2c(c3c4ccccc4n4c3c3c2c2ccccc2n3[C@]2(C)O[C@H]4C[C@H](N(C)C(=O)c3ccccc3)[C@@H]2OC)C1=O | ~100000 nM | > 100000 nM |  | > 100000 nM |  |
| CO[C@H]1[C@@H](N(C)OC(=O)C(C)(C)C)C[C@@H]2O[C@@]1(C)n1c3ccccc3c3c4c(c5c6ccccc6n2c5c31)C(=O)NC4=O | 5250 nM | > 100000 nM |  |  |  |

| SMILES | IC50 [1] | IC50 [2] | IC50 [3] | IC50 [4] | IC50 [5] |
| --- | --- | --- | --- | --- | --- |
| CO[C@H]1[C@@H](N(C)c2ccccc2)C[C@@H]2O[C@@]1(C)n1c3ccccc3c3c4c(c5c6ccccc6n2c5c31)C(=O)NC4 | 15 nM | 55 nM |  |  |  |
| CO[C@H]1[C@@H](N(C)C(=O)c2cccc([N+](=O)[O-])c2)C[C@@H]2O[C@@]1(C)n1c3ccccc3c3c4c(c5c6ccccc6n2c5c31)C(=O)NC4 | 60 nM | 2500 nM |  | 100 nM |  |
| CO[C@H]1[C@@H](N(C)C(=O)C(F)(F)F)C[C@@H]2O[C@@]1(C)n1c3ccccc3c3c4c(c5c6ccccc6n2c5c31)C(=O)NC4 | 10 nM | 17000 nM |  | 100 nM |  |
| CO[C@H]1[C@@H](N(C)C(=O)c2ccc(C(=O)O)cc2)C[C@@H]2O[C@@]1(C)n1c3ccccc3c3c4c(c5c6ccccc6n2c5c31)C(=O)NC4 | 30 nM | 10000 nM |  | 100 nM |  |
| CO[C@H]1[C@@H](N(C)CC(=O)O)C[C@@H]2O[C@@]1(C)n1c3ccccc3c3c4c(c5c6ccccc6n2c5c31)C(=O)NC4 | 15 nM | 140 nM |  |  |  |
| CO[C@H]1[C@@H](N(C)C(C)=O)C[C@@H]2O[C@@]1(C)n1c3ccccc3c3c4c(c5c6ccccc6n2c5c31)C(=O)NC4 | 10 nM | 1500 nM |  |  |  |
| CO[C@H]1[C@@H](N(C)C(=O)c2cc([N+](=O)[O-])cc([N+](=O)[O-])c2)C[C@@H]2O[C@@]1(C)n1c3ccccc3c3c4c(c5c6ccccc6n2c5c31)C(=O)NC4 | 370 nM | > 100000 nM |  | 200 nM |  |
| CO[C@H]1[C@@H](N(C)C(=O)c2cccc(Cl)c2)C[C@@H]2O[C@@]1(C)n1c3ccccc3c3c4c(c5c6ccccc6n2c5c31)C(=O)NC4 | 1900 nM | 6800 nM |  |  |  |
| CO[C@H]1[C@@H](N(C)C(=O)OC(C)(C)C)C[C@@H]2O[C@@]1(C)n1c3ccccc3c3c4c(c5c6ccccc6n2c5c31)C(=O)NC4 | 420 nM | 28000 nM |  | 1000 nM |  |
| COc1ccc(C(=O)N(C)[C@H]2C[C@@H]3O[C@](C)([C@H]2OC)n2c4ccccc4c4c5c(c6c7ccccc7n3c6c42)C(=O)NC5)cc1 | 130 nM | 1500 nM |  |  |  |
| CO[C@H]1[C@@H](N(C)C(=O)c2ccccc2)C[C@@H]2O[C@@]1(C)n1c3ccccc3c3c4c(c5c6ccccc6n2c5c31)C(=O)NC4=O | 270 nM | 750 nM |  |  |  |
| CO[C@H]1[C@@H](N(C)C(=O)CNC(=O)OC(C)(C)C)C[C@@H]2O[C@@]1(C)n1c3ccccc3c3c4c(c5c6ccccc6n2c5c31)C(=O)NC4 | 120 nM | 2250 nM |  | 200 nM | 160 nM |
| CCN(C)[C@H]1C[C@@H]2O[C@](C)([C@H]1OC)n1c3ccccc3c3c4c(c5c6ccccc6n2c5c31)C(=O)NC4 | 70 nM | 1600 nM |  |  | 240 nM |
| CO[C@H]1[C@@H](N(C)C(=O)CCC(=O)O)C[C@@H]2O[C@@]1(C)n1c3ccccc3c3c4c(c5c6ccccc6n2c5c31)C(=O)NC4 | 62 nM | 700 nM |  |  | 200 nM |
| COC(=O)CN(C)[C@H]1C[C@@H]2O[C@](C)([C@H]1OC)n1c3ccccc3c3c4c(c5c6ccccc6n2c5c31)C(=O)NC4 | 440 nM | 3200 nM |  |  |  |
| CN[C@H]1C[C@@H]2O[C@](C)([C@H]1OC)n1c3ccccc3c3c4c(c5c6ccccc6n2c5c31)C(=O)NC4=O | 5 nM | 26 nM |  |  | 800 nM |
| CN[C@H]1C[C@@H]2O[C@](C)([C@H]1OC)n1c3ccccc3c3c4c(c5c6ccccc6n2c5c31)C(=O)N[C@H]4O | 6 nM |  |  |  |  |
| CCCCC(O)CN(C)[C@H]1C[C@@H]2O[C@](C)([C@H]1OC)n1c3ccccc3c3c4c(c5c6ccccc6n2c5c31)C(=O)NC4 (some centres not stated) | 50 nM | 360 nM |  |  |  |
| CO[C@H]1[C@@H](N(C)C(=O)c2ccccc2Cl)C[C@@H]2O[C@@]1(C)n1c3ccccc3c3c4c(c5c6ccccc6n2c5c31)C(=O)NC4 | 78 nM | 1500 nM |  |  |  |
| CO[C@H]1[C@@H](N(C)C(=O)CN)C[C@@H]2O[C@@]1(C)n1c3ccccc3c3c4c(c5c6ccccc6n2c5c31)C(=O)NC4 | 51 nM | 360 nM |  |  |  |
